Key:
Type in all cases: biochemical
UGP2 [1] = biological target: T1, UGP2 (Homo sapiens, UniProt Q16851); assay: enzyme inhibition assay; conditions: residual activity, not per cent inhibition; inhibitor 25 µM printed for GAL-012, assumed for analogue; 5 min preincubation
T1 construct: recombinant, expressed in E. coli HMS174(DE3), Ni-NTA purified; plasmid from earlier work
T1 sequence (Q16851 1-508): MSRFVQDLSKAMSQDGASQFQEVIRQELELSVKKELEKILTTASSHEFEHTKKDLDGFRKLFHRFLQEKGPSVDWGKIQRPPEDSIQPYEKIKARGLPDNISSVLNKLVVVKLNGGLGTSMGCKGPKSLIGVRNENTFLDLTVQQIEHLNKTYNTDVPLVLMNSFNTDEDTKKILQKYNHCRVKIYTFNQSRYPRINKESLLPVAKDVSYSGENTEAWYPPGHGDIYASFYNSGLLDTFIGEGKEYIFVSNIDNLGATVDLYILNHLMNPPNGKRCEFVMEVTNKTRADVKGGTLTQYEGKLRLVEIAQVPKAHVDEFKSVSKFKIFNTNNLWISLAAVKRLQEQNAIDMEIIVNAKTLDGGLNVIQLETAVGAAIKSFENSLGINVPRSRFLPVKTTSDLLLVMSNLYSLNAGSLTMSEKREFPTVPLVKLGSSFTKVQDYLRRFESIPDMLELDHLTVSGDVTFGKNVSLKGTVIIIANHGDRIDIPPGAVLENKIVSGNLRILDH
Excerpt: enzyme inhibition assay on UGP2

GALT [2] = biological target: T2, GALT (Homo sapiens, UniProt P07902); assay: enzyme inhibition assay; conditions: residual activity, not per cent inhibition; inhibitor 25 µM printed for GAL-012, assumed for analogue; 5 min preincubation
T2 construct: recombinant, expressed in E. coli HMS174(DE3), Ni-NTA purified; plasmid from earlier work
Excerpt: enzyme inhibition assay on GALT

GALT [3] = biological target: T2, GALT; assay: enzyme inhibition assay
Excerpt: enzyme inhibition assay on GALT | GAL-012, that inhibit a small family of UDP-hexose pyrophosphorylases-galactose pyro-phosphorylase (GALT)

GALT [4] = biological target: T2, GALT; assay: initial velocities, Lineweaver-Burk
AGX1/UAP1 = biological target: T3, AGX1/UAP1 (Homo sapiens, UniProt Q16222); assay: enzyme inhibition assay; conditions: one value stated for GALT, UGP2 and AGX1/UAP1 together
T3 construct: full-length, cDNA from HepG2 cells, pET30A(+) in E. coli HMS174(DE3), Ni-NTA purified

UGP2 [5] = biological target: T1, UGP2; assay: enzyme inhibition assay
Excerpt: enzyme inhibition assay on UGP2 | UDP-glucose pyrophosphorylase (UGP2)

T2 sequence (P07902 whole entry): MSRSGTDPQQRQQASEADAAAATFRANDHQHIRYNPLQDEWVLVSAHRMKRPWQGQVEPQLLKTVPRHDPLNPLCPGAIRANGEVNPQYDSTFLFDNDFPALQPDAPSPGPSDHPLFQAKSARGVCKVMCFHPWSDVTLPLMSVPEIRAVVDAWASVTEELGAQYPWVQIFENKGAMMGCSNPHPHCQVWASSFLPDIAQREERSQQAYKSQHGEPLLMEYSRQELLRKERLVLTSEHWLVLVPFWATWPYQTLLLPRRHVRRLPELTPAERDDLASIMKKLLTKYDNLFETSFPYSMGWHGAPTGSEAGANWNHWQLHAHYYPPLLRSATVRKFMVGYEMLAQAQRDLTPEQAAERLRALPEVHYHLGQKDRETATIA
T3 sequence (Q16222 1-505 isoform Q16222-2): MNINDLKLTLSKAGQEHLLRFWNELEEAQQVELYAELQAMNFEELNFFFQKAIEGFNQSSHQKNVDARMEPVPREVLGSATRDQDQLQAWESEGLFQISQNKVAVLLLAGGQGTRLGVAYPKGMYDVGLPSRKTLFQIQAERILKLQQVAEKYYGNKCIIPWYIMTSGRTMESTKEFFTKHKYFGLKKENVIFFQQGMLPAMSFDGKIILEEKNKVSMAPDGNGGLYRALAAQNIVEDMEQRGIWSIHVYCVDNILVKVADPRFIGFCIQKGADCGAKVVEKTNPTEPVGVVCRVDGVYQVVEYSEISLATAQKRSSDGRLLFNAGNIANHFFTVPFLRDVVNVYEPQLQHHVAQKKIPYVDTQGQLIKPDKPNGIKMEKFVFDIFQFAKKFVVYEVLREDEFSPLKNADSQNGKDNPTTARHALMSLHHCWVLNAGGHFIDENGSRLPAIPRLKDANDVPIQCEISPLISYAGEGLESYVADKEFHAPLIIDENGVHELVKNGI

SMILES | Enzyme Inhibitory Activity / UGP2 (UGP2 [1]) | Enzyme Inhibitory Activity / GALT (GALT [2]) | IC50 (GALT [3]) | Ki (GALT [4]) | IC50 (AGX1/UAP1) | IC50 (UGP2 [5])
CN(C)/C=C/C(=O)c1ccc2c(c1)C(C)(C)C(=O)N2C [GAL-012-2] | 63.8 ± 4% | 63.4 ± 2.3% | – | – | – | –
CN1C(=O)C(C)(C)c2cc(-c3ccnc(N)n3)ccc21 [GAL-012] | – | – | 30 µM | ~30 µM | 30 µM | 30 µM

— PMC7038226, “Discovery of Novel Inhibitors Targeting Multi-UDP-hexose Pyrophosphorylases as Anticancer Agents” (Molecules, 2020)
